Reference: patent US12077503B2, “Substituted cyclic amides and their use as herbicides” (FMC CORPORATION, priority 2015, dated 2024)

Columns and labels:
Format in all cases: in vivo
[1] = test system: Galium (catchweed bedstraw, Galium aparine); assay: Test C preemergence; settings: for Plant response rating, Galium: scale 0 to 100, 0 no effect, 100 complete control
Procedure, shortened: (§1)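 Scores of 0 to 100 reflect visual comparison with control plants, where 0 means no effect and 100 complete control, made 13 to 15 d after treatment. Application was preemergence to seeds in loam-sand soil or postemergence to plants 2 to 18 cm tall in peat-based mix, using a surfactant-containing solvent formulation.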

[2] = test system: barnyardgrass (Echinochloa crus-galli); assay: Test C preemergence; settings: for Plant response rating, Barnyardgrass: scale 0 to 100, 0 no effect, 100 complete control
Procedure, shortened: as §1

[3] = test system: blackgrass (Alopecurus myosuroides); assay: Test C preemergence; settings: for Plant response rating, Blackgrass: scale 0 to 100, 0 no effect, 100 complete control
Procedure, shortened: as §1

[4] = test system: corn (Zea mays); assay: Test C preemergence; settings: for Plant response rating, Corn: scale 0 to 100, 0 no effect, 100 complete control
Procedure, shortened: as §1

[5] = test system: crabgrass, large (large crabgrass, Digitaria sanguinalis); assay: Test C preemergence; settings: for Plant response rating, Crabgrass, Large: scale 0 to 100, 0 no effect, 100 complete control
Procedure, shortened: as §1

[6] = test system: johnsongrass (Sorghum halepense); assay: Test C preemergence; settings: for Plant response rating, Johnsongrass: scale 0 to 100, 0 no effect, 100 complete control
Procedure, shortened: as §1

[7] = test system: lambsquarters (Chenopodium album); assay: Test C preemergence; settings: for Plant response rating, Lambsquarters: scale 0 to 100, 0 no effect, 100 complete control
Procedure, shortened: as §1

[8] = test system: morningglory (Ipomoea coccinea); assay: Test C preemergence; settings: for Plant response rating, Morningglory: scale 0 to 100, 0 no effect, 100 complete control
Procedure, shortened: as §1

[9] = test system: nutsedge, yellow (yellow nutsedge, Cyperus esculentus); assay: Test C preemergence; settings: for Plant response rating, Nutsedge, Yellow: scale 0 to 100, 0 no effect, 100 complete control
Procedure, shortened: as §1

[10] = test system: oilseed rape (Brassica napus); assay: Test C preemergence; settings: for Plant response rating, Oilseed Rape: scale 0 to 100, 0 no effect, 100 complete control
Procedure, shortened: as §1

[11] = test system: pigweed (Amaranthus retroflexus); assay: Test C preemergence; settings: for Plant response rating, Pigweed: scale 0 to 100, 0 no effect, 100 complete control
Procedure, shortened: as §1

[12] = test system: ragweed (common ragweed, Ambrosia elatior); assay: Test C preemergence; settings: for Plant response rating, Ragweed: scale 0 to 100, 0 no effect, 100 complete control
Procedure, shortened: as §1

[13] = test system: ryegrass, Italian (Italian ryegrass, Lolium multiflorum); assay: Test C preemergence; settings: for Plant response rating, Ryegrass, Italian: scale 0 to 100, 0 no effect, 100 complete control
Procedure, shortened: as §1

[14] = test system: soybean (Glycine max); assay: Test C preemergence
Procedure, shortened: as §1

[15] = test system: velvetleaf (Abutilon theophrasti); assay: Test C preemergence; settings: for Plant response rating, Velvetleaf: scale 0 to 100, 0 no effect, 100 complete control
Procedure, shortened: as §1

[16] = test system: waterhemp (common waterhemp, Amaranthus rudis); assay: Test C preemergence; settings: for Plant response rating, Waterhemp: scale 0 to 100, 0 no effect, 100 complete control
Procedure, shortened: as §1

[17] = test system: wheat (winter wheat, Triticum aestivum); assay: Test C preemergence; settings: for Plant response rating, Wheat: scale 0 to 100, 0 no effect, 100 complete control
Procedure, shortened: as §1

[18] = test system: sedge, umbrella (small-flower umbrella sedge, Cyperus difformis); assay: Test C flooded paddy test; settings: Flood; for Plant response rating (scale of 0 to 100), Sedge, Umbrella: 0 is no effect, 100 is complete control
Procedure, shortened: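 Compound was added directly to paddy water held 3 cm above the soil, with plants at the 2-leaf stage. Injury was scored visually versus untreated controls after 13–15 d greenhouse growth, using a 0–100 scale where 100 means complete control.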

[19] = 31 g ai/ha, 0 is no effect, 100 is complete control

Cc1ccc(C2CN(C)C(=O)C2C(=O)Nc2ccccc2F)cc1F (stereo not shown) [Compound 465]
25: Plant response rating, Morningglory ([8]; 125 g ai/ha) | Plant response rating, Pigweed ([11]; 62 g ai/ha)
0: Plant response rating (scale of 0 to 100), Nutsedge, Yellow [9, 19] | Plant response rating, Nutsedge, Yellow ([9]; 62 g ai/ha) | Plant response rating, Nutsedge, Yellow ([9]; 125 g ai/ha) | Plant response rating, Nutsedge, Yellow ([9]; 250 g ai/ha) | Plant response rating (scale of 0 to 100), Ragweed [12, 19] | Plant response rating, Sedge, Umbrella ([18]; 16 g ai/ha, scale 0 to 100 (0 no effect, 100 complete control), 13 to 15 d) | Plant response rating (scale of 0 to 100), Sedge, Umbrella ([18]; 31 g ai/ha) | Plant response rating (scale of 0 to 100), Sedge, Umbrella ([18]; 62 g ai/ha) | Plant response rating (scale of 0 to 100), Sedge, Umbrella ([18]; 125 g ai/ha)
95: Plant response rating, Barnyardgrass ([2]; 62 g ai/ha) | Plant response rating, Wheat ([17]; 250 g ai/ha)
98: Plant response rating, Galium ([1]; 250 g ai/ha) | Plant response rating, Barnyardgrass ([2]; 125 g ai/ha)
40: Plant response rating (scale of 0 to 100), Corn [4, 19]
55: Plant response rating, Corn ([4]; 62 g ai/ha) | Plant response rating, Pigweed ([11]; 250 g ai/ha) | Plant response rating, Velvetleaf ([15]; 125 g ai/ha)
15: Plant response rating, Soybean ([14]; 250 g ai/ha, scale 0 to 100, 0 no effect, 100 complete control) | Plant response rating (scale of 0 to 100), Velvetleaf [15, 19]
90: Plant response rating, Galium ([1]; 125 g ai/ha) | Plant response rating (scale of 0 to 100), Barnyardgrass [2, 19] | Plant response rating, Blackgrass ([3]; 250 g ai/ha) | Plant response rating, Corn ([4]; 250 g ai/ha) | Plant response rating, Oilseed Rape ([10]; 250 g ai/ha)
75: Plant response rating (scale of 0 to 100), Lambsquarters [7, 19] | Plant response rating, Lambsquarters ([7]; 62 g ai/ha) | Plant response rating, Ragweed ([12]; 125 g ai/ha)
85: Plant response rating, Galium ([1]; 62 g ai/ha) | Plant response rating, Johnsongrass ([6]; 250 g ai/ha) | Plant response rating, Lambsquarters ([7]; 125 g ai/ha) | Plant response rating, Oilseed Rape ([10]; 125 g ai/ha)
65: Plant response rating, Corn ([4]; 125 g ai/ha) | Plant response rating, Johnsongrass ([6]; 62 g ai/ha) | Plant response rating, Ryegrass, Italian ([13]; 125 g ai/ha) | Plant response rating, Ryegrass, Italian ([13]; 250 g ai/ha) | Plant response rating, Velvetleaf ([15]; 250 g ai/ha)
80: Plant response rating (scale of 0 to 100), Galium [1, 19] | Plant response rating, Blackgrass ([3]; 125 g ai/ha) | Plant response rating, Johnsongrass ([6]; 125 g ai/ha) | Plant response rating, Ragweed ([12]; 250 g ai/ha) | Plant response rating, Waterhemp ([16]; 125 g ai/ha) | Plant response rating, Waterhemp ([16]; 250 g ai/ha) | Plant response rating, Wheat ([17]; 125 g ai/ha)
60: Plant response rating, Pigweed ([11]; 125 g ai/ha) | Plant response rating, Ragweed ([12]; 62 g ai/ha) | Plant response rating (scale of 0 to 100), Waterhemp [16, 19]
100: Plant response rating, Barnyardgrass ([2]; 250 g ai/ha) | Plant response rating (scale of 0 to 100), Crabgrass, Large [5, 19] | Plant response rating, Crabgrass, Large ([5]; 62 g ai/ha) | Plant response rating, Crabgrass, Large ([5]; 125 g ai/ha) | Plant response rating, Crabgrass, Large ([5]; 250 g ai/ha) | Plant response rating, Lambsquarters ([7]; 250 g ai/ha)
30: Plant response rating (scale of 0 to 100), Oilseed Rape [10, 19]
20: Plant response rating (scale of 0 to 100), Blackgrass [3, 19] | Plant response rating, Morningglory ([8]; 62 g ai/ha) | Plant response rating (scale of 0 to 100), Wheat [17, 19]
5: Plant response rating (scale of 0 to 100), Morningglory [8, 19] | Plant response rating (scale of 0 to 100), Soybean [14, 19] | Plant response rating, Velvetleaf ([15]; 62 g ai/ha)
70: Plant response rating, Ryegrass, Italian ([13]; 62 g ai/ha) | Plant response rating, Waterhemp ([16]; 62 g ai/ha) | Plant response rating, Wheat ([17]; 62 g ai/ha)
50: Plant response rating, Blackgrass ([3]; 62 g ai/ha) | Plant response rating, Morningglory ([8]; 250 g ai/ha)
10: Plant response rating (scale of 0 to 100), Johnsongrass [6, 19] | Plant response rating, Oilseed Rape ([10]; 62 g ai/ha) | Plant response rating (scale of 0 to 100), Pigweed [11, 19] | Plant response rating (scale of 0 to 100), Ryegrass, Italian [13, 19]
